Each structure is given as a SMILES string. Values joined by “and” are separate entries in the source; they are usually repeats but may differ in a detail not shown here. Identical values can stand only once.

The target of one experiment is T1, Homo sapiens GSK-3β (Homo sapiens, UniProt P49841).
T1 construct: purchased MRC Protein Phosphorylation & Ubiquitylation Unit, University of Dundee (screening service)
T1 sequence (P49841 whole entry): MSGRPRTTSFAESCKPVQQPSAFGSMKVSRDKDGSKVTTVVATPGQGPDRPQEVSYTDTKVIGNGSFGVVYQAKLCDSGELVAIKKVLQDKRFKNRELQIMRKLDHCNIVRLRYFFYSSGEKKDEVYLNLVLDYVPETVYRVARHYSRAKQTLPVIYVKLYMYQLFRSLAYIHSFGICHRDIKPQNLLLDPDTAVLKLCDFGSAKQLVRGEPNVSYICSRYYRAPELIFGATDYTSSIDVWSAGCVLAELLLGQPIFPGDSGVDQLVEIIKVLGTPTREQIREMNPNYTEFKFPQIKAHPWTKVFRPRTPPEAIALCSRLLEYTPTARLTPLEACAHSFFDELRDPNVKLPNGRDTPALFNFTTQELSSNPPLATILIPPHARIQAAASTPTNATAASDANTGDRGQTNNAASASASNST
Briefly: in vitro GSK-3β binding assay (kinase inhibition, MRC PPU Dundee). The following applies: in vitro binding assay, duplicate. In kind it is biochemical. How it is done:
All predicted inhibitors for testing (except compound 3) were purchased from Vitas-M Laboratory, with purity ≥ 90%. Compound 3 was purchased from Biosynth Carbosynth with purity of 95%. Binding assay experiments against Homo sapiens GSK-3β were performed using a specialist service from the MRC Protein Phosphorylation & Ubiquitylation Unit at the University of Dundee (http://www.kinase-screen.mrc.ac.uk/ (accessed on 1 April 2023)). Initial assays underwent single concentration screening at 50 µM concentrations to determine those compounds showing the best inhibitory potential. Inhibitory activities were calculated based on maximal activities measured in the absence of an inhibitor. […] In the kinase selectivity panel screening for 14 and 19, the compounds were assayed at single concentration (50 μM) against CDK2, CDK5, CDK9, ERK1, ERK2, PKA, PKBβ, PKCα, PKCγ, GSK-3α, and GSK-3β. All binding assay experiments were performed in duplicate.
What is called IC50 is the concentration that inhibits the measured activity by half. `O=C1c2ccccc2-c2c(NC3CCCCC3)c(=O)[nH]c3cccc1c23` [Compound 18]: the half-inhibitory concentration (IC50) is 25300 ± 3500 nM.
Turning to `Nc1ccc2ncnc3c2c1C(=O)c1ccccc1-3` [Compound 1, 6-amino-7H-benzo[e]perimidin-7-one], the concentration for half-maximal inhibition (IC50) came to 1630 ± 300 nM.
The compound `COc1ccc([C@@H]2CC(=O)Nc3cccc4c3c2cn4Cc2ccccc2)c(OC)c1` [Compound 4, (R)-1-benzyl-3-(2,4-dimethoxyphenyl)-1,3,4,6-tetrahydro-5H-azepino[4,3,2-cd]indol-5-one] had a half-maximal inhibitory concentration (IC50) of 87500 ± 9170 nM.
On the same count and under the same terms, the figure for `COc1ccc(Nc2c3c4c(c(Br)ccc4n(C)c2=O)C(=O)c2ccccc2-3)cc1` [Compound 17] is 14000 ± 3100 nM.
Same read-out and setting: the figure for `O=C1c2ccccc2-c2c(Nc3ccccc3)c(O)nc3cccc1c23` [Compound 2, 1-(phenylamino)-3H-naphtho[1,2,3-de]quinoline-2,7-dione] is 20600 ± 3800 nM.
On the same count and under the same terms, the figure for `COCCCNc1c(O)nc2cccc3c2c1-c1ccccc1C3=O` [Compound 20] is < 10000 nM and 9100 nM; for `COc1ccccc1Nc1c2c3c(cccc3n(C)c1=O)C(=O)c1ccccc1-2` [Compound 16] it is 27100 ± 1100 nM.
On to `COc1ccc(Nc2c3c4c(cccc4[nH]c2=O)C(=O)c2ccccc2-3)cc1` [Compound 15], for which the IC50 stood at 11400 ± 600 nM.

Staying with this experiment, now noted: single concentration 50 µM.
A word on the inhibition: it is the share of the control response that was lost under treatment. The low end stands for a response near the control, the high end for a response far below the control. `CN(C)CCn1cnc2c1c(=O)[nH]c(=O)n2Cc1ccccc1` [Compound 6, 3-benzyl-7-(2-(dimethylamino)ethyl)-3,7-dihydro-1H-purine-2,6-dione]: the inhibition at 50 µM turned out to be 11%.
The compound `Cc1coc2cc3oc(=O)c(CC(=O)N[C@H]4CCCc5c4[nH]c4ccccc54)c(C)c3cc12` [Compound 7, (S)-2-(3,5-dimethyl-7-oxo-7H-furo[3,2-g]chromen-6-yl)-N-(2,3,4,9-tetrahydro-1H-carbazol-1-yl)acetamide] gave an inhibition at 50 µM of 10%.
Same read-out and setting: to `O=C1Nc2cc(Cl)ccc2/C1=C/c1cccc2[nH]ccc12` [Compound 12, (Z)-3-((1H-indol-4-yl)methylene)-6-chloroindolin-2-one] belongs under 0%.

A further experiment has as its system GSK-3β.
Test: not given
Further details: method as in ChEMBL database [53]. The note with it: Table S1, ChEMBL data; ref ChEMBL database [53]; read-out: IC50 (GSK-3β, known actives); cited from earlier work.
On to `Clc1ccccc1-c1cc(NCOc2cccnc2)n2ncc(Br)c2n1` [CHEMBL398621], for which the 50% inhibitory concentration (IC50) was 35 nM.
As to `Nc1c(Br)cc(C(=O)C(Br)Br)cc1Br` [CHEMBL1801628], the IC50 was 500 nM.
For `O=CN1Cc2cccc3c(C4=C(c5cnc6ccccn56)C(=O)NC4=O)cn(c23)CC1N1CCOCC1` (centres unmarked) [CHEMBL4162850], the IC50 was 1.3 nM.
Turning to `OCC/N=c1\nc(-c2ccccc2)n(-c2cccc3ccccc23)s1` [CHEMBL2022413], the half-inhibitory concentration (IC50) was 300 nM.
For the compound `CCc1ccc(-n2cc(CSc3nnc(Cn4c(C(F)(F)F)nc5ccccc54)o3)nn2)cc1` [CHEMBL4643895], the IC50 was 390 nM.
For the compound `Cc1ccc(-c2c[nH]c(C3COCCN3Cc3c[nH]c4ccccc34)n2)cc1` (centres unmarked) [CHEMBL2297166], the concentration for half-maximal inhibition (IC50) was 120 nM.
For `O=c1[nH]cnc2[nH]c(-c3ccnc(/C=C/c4ccc(CN5CCOCC5)cc4)c3)cc12` [CHEMBL461139], the IC50 is 300 nM.
As to `FC(F)(F)c1cccc(-c2nn3ncccc3c2-c2ccnc(Nc3ccc4c(c3)OCCO4)n2)c1` [CHEMBL362155], the IC50 is […].
With `COc1ccc(-c2oc3ncnc(N)c3c2-c2cccnc2)cc1` [CHEMBL361567], the IC50 is 80 nM.
As for `COc1ccc(-c2ocnc2C(=O)NCc2ccn3ccnc3c2)cc1Cl` [CHEMBL1957231], the 50% inhibitory concentration (IC50) was 5.01 nM.
In the case of `COc1ccc2c(c1C(C)N1CCNCC1)O/C(=C\c1n[nH]c3ncccc13)C2=O` (centres unmarked) [CHEMBL3735890], the half-inhibitory concentration (IC50) was 6.1 nM.
On to `COc1cccc(-n2ncc3c(N/N=C/c4ccc(OCCN(C)C)cc4)ncnc32)c1` [CHEMBL303321], for which the IC50 is 6.31 nM.
In the case of `O=C(/C=C/c1cnc2[nH]cc(-c3ccccc3)c2c1)NCCN1CCOCC1` [CHEMBL3891139], the IC50 is 46 nM.
With `Cc1ccc(-n2cc(CSC3=NC(c4ccccc4)CC(=O)N3C)nn2)cc1C` (centres unmarked) [CHEMBL4635819], the concentration for half-maximal inhibition (IC50) was 82 nM.
For `COc1cc(F)cc(F)c1C1CN(c2nc(-c3ccncn3)cc(=O)n2C)CCN1` (centres unmarked) [CHEMBL4071429], the 50% inhibitory concentration (IC50) is 1.7 nM.
Turning to `O=C(NCCc1cccnc1Cl)c1ccnc2[nH]c(-c3ccoc3)nc12` [CHEMBL2048673], the IC50 was 9 nM.
For the compound `O=C1Nc2ccccc2/C1=C1/Nc2cc(Br)ccc2C1=O` [CHEMBL1830063], the half-maximal inhibitory concentration (IC50) is 4 nM.
Turning to `Oc1ccc(Nc2ncnc3[nH]cnc23)cc1CN(CCCl)CCCl` [CHEMBL1630434], the IC50 was 10.8 nM.
Regarding `COc1cccc(Nc2nccc(C3=C(c4ccccc4)NN4C=CC=CC34)n2)c1` (centres unmarked) [CHEMBL403405], the IC50 is 30 nM.
Regarding `COc1ccc(Nc2nnc(-c3ccc(C(F)(F)F)cc3)o2)cc1` [CHEMBL1630483], the concentration for half-maximal inhibition (IC50) was 53 nM.
In the case of `COc1cc(NCCCN)c2nccc(C)c2c1Oc1cccc(C(F)(F)F)c1` [CHEMBL495039], the IC50 was […].
As for `O=C1Nc2ccccc2/C1=C/c1ccccn1` [CHEMBL2094331], the IC50 is 4.19 nM.
With `COc1cc(C2=C(c3cn(CCN4CCN(C)CC4)c4ccccc34)C(=O)NC2=O)c2occc2c1` [CHEMBL564450], the half-inhibitory concentration (IC50) is 0.14 nM.
As to `C=CCOC(=O)c1cc(-c2ccc(/C=C3/NC(=S)NC3=O)o2)ccc1Cl` [CHEMBL4568120], the half-maximal inhibitory concentration (IC50) is 218 nM.
Regarding `COc1ccc(-n2cnc3ccc(-c4nnc(SCc5cccc(C(F)(F)F)c5)o4)cc32)cc1` [CHEMBL513570], the half-inhibitory concentration (IC50) is 2.5 nM.
For the compound `O=C(NC1CCNCC1)c1n[nH]cc1NC(=O)c1c(Cl)cccc1Cl` [CHEMBL445813], the half-inhibitory concentration (IC50) is 200 nM.
With `O=C1Cc2cc(Br)ccc2/C1=c1/[nH]c2ccccc2/c1=C\O` [CHEMBL4077172], the IC50 was 5 nM.
With `Cc1[nH]c2ccccc2c1C1=C(NCCc2ccc(F)cc2)C(=O)N(C)C1=O` [CHEMBL1254896], the 50% inhibitory concentration (IC50) was 53 nM.
Regarding `CCOC(=O)C/N=c1\nc(-c2ccc(OC)cc2)n(-c2ccccc2)s1` [CHEMBL2024372], the 50% inhibitory concentration (IC50) was 500 nM.
With `COc1ccncc1-c1ccc2[nH]nc(C(=O)NCC3CCN(CCc4ccccc4)CC3)c2c1` [CHEMBL3735603], the IC50 was 20 nM.
In the case of `Cc1ccccc1-n1cc(-c2ccccn2)nn1` [CHEMBL1938959], the IC50 is 490 nM.
As for `COc1ccc(-c2cc3c(NC(=O)CC4CCCC4)ncnc3o2)cc1` [CHEMBL182891], the IC50 was 320 nM.
On to `N#Cc1ccc2[nH]c(O)c(-c3ccc(CN4CCOCC4)cn3)c2c1` [CHEMBL1969664], for which the IC50 is 31 nM.
Regarding `Fc1cnc2[nH]nc(Nc3cc(C(F)(F)F)cc(-c4ccccc4Cl)n3)c2c1` [CHEMBL3661029], the IC50 was 50 nM.
`C[C@@H]1C[C@H]2CN1CCn1nc3c(cccc3c1O)-c1nc3c(cccc3nc1O)O2` [CHEMBL215803]: the IC50 is 13 nM.
Turning to `O=C(CCl)c1scc(Br)c1Br` [CHEMBL357136], the half-maximal inhibitory concentration (IC50) was 500 nM.
For `COc1ccc(-c2cc(-c3ccc(F)cc3)[nH]c(=O)c2O)cc1` [CHEMBL1630451], the half-maximal inhibitory concentration (IC50) was 325 nM.

The same experiment, now with this note: read-out: IC50 (GSK-3β, known actives); cited from earlier work.
Regarding `Cc1nn(-c2ccc(Cl)cc2Cl)c2c1c1c(c3cccn32)C(=O)NC1=O` [CHEMBL3110144], the IC50 is 240 nM.
In the case of `CN(C)C[C@@H](OC(=O)N1Cc2c(NC(=O)C(C)(C)C)n[nH]c2C1(C)C)c1ccccc1` [CHEMBL2064628], the IC50 was 227 nM.

(Values after article PMC10223992, “In Silico-Motivated Discovery of Novel Potent Glycogen Synthase-3 Inhibitors: 1-(Alkyl/arylamino)-3H-naphtho[1,2,3-de]quinoline-2,7-dione Identified as a Scaffold for Kinase Inhibitor Development” (Pharmaceuticals, 2023).)
